Like-named read-outs stand apart in the source and are kept apart here.
Legend:
[1] = system: Plasmodium falciparum Dd2 asexual blood stage parasites; assay: microbe, parasite or virus in culture; parameters: species or system Plasmodium falciparum Dd2 in human erythrocytes; single determination (one 11-point concentration-response curve); conditions: Plasmodium falciparum, DD2, Erythrocyte, 72 h; read-out: AC50
in vitro [2] = conditions: human, HepG2-A16-CD81EGFP cells, uninfected
[3] = molecular target: Firefly luciferase (Fluc, EC 1.13.12.7) (Photinus pyralis, UniProt P08659); assay: biochemical; parameters: single determination (the paper says generally: 'qHTS assays were performed in a single replicate with a 7- to 11-point dose response format'; it is not stated for this counterscreen itself)
in vitro [4] = conditions: human, HepG2 cells; n = 1
[5] = system: luciferase-expressing P. berghei liver stage parasites in HepG2 cells; assay: Inhibition of liver-stage development assay (ILSDA), Method 2 (WRAIR, 96-well); format: cell-based, Plasmodium berghei; conditions: for AC50: Plasmodium berghei, HepG2, Method 2
in vitro [6] = conditions: human, hepg2 cells
HepG2 = conditions: human, hepg2 cells, 48 h
[7] = system: P. falciparum Dd2 Cytb V259L; assay: SYBR Green ABS proliferation assay, NCGC00473217 selected clone F06; format: cell-based, Plasmodium falciparum; conditions: Plasmodium falciparum, DD2, NCGC00473217 selected clone F06; read-out: AC50 [μM], Cytb V259L (converted)
Method in brief: (§1)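 72 h SYBR Green-I read; % response = relative growth vs controls. Clones from resistance selection, cloned by limiting dilution; 37 °C, 5% CO2/5% O2/90% N2.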

[8] = system: P. falciparum Dd2 Cytb A122D; assay: SYBR Green ABS proliferation assay, NCGC00473217 selected clone F12; format: cell-based, Plasmodium falciparum; conditions: Plasmodium falciparum, DD2, NCGC00473217 selected clone F12; read-out: AC50 [μM], Cytb A122D (converted)
Method in brief: as §1

[9] = system: P. falciparum Dd2 Cytb G131S; assay: SYBR Green ABS proliferation assay, NCGC00374598 selected clone C11; format: cell-based, Plasmodium falciparum; conditions: Plasmodium falciparum, DD2, NCGC00374598 selected clone C11; read-out: AC50 [μM], Cytb G131S (converted)
Method in brief: as §1

[10] = Rat liver microsomal stability (RLMS); conditions: rat, rat liver microsomes
Protocol: (§2) Pharmacokinetic modeling experiments, parallel artificial membrane permeability assay (PAMPA), solubility, and rat liver microsome stability assessment were performed on all synthetic compounds, as previously described[73]–[75].

Aqueous solubility = format: physicochemical; conditions: aqueous media
Protocol: as §2

[11] = system: P. falciparum Dd2 Cytb F123L; assay: SYBR Green ABS proliferation assay, NCGC00473217 selected clone G08; format: cell-based, Plasmodium falciparum; conditions: Plasmodium falciparum, DD2, NCGC00473217 selected clone G08; highest concentration 29 µM; read-out: AC50 [μM], Cytb F123L (converted)
Method in brief: as §1

[12] = system: P. falciparum Dd2 (clone B2) asexual blood stage parasites; assay: P. falciparum Dd2 asexual blood stage SYBR Green-I 72 h proliferation assay (qHTS); format: cell-based, Plasmodium falciparum; conditions: Plasmodium falciparum, DD2, 72 h, SYBR Green 72 h; approximate value in μM; read-out: AC50 [μM], Dd2-B2 (parental line) (converted)
[13] = system: P. berghei-ANKA-GFP-LucCON liver stage parasites in HepG2-A16-CD81EGFP cells; assay: P. berghei liver stage Pb-Luc assay, Method 1 (UCSD, 1536-well); format: cell-based, Plasmodium berghei; conditions: Plasmodium berghei, 48 h, P. berghei liver stage, average of 2 wells on a 1536 well plate; for activity at 1 µM: 1 µM compound treatment (10 mM stocks); for activity at 3 µM: 3 µM compound treatment (10 mM stocks)
HepG2-A16-CD81EGFP cells = conditions: average of 2 wells

Chain of Firefly luciferase (Fluc, EC 1.13.12.7) (P08659 whole entry): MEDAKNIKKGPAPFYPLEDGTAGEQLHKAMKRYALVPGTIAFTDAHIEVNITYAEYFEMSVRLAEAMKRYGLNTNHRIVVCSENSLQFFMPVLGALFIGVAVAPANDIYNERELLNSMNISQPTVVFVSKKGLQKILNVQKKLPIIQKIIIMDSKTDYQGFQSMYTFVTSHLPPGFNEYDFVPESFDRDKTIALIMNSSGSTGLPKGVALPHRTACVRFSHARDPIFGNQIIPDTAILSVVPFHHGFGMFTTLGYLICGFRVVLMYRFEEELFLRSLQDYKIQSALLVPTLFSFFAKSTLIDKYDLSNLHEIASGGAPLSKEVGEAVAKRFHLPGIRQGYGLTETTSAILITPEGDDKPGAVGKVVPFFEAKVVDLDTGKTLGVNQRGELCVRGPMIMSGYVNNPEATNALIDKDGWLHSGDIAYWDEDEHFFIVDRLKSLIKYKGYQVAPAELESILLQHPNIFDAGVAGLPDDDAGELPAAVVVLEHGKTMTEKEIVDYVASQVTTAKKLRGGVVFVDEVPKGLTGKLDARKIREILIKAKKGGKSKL

Cn1c(/N=N/c2ccccc2)nc2ccccc21 [MLS000700530-01]
AC50 [1]: 0.841 µM | viability at 48 h, 1 µM (in vitro [2]): 91% | viability at 48 h, 3 µM (in vitro [2]): 70% | AC50 [3]: 6.81 µM | CC50 at 48 h (in vitro [4]): 12.2 µM

CCCc1ccc(C(=O)NC(=O)c2ccccc2O)cc1 [MLS000850457-01]
AC50 [1]: 1.06 µM | viability at 48 h, 1 µM (in vitro [2]): 101% | viability at 48 h, 3 µM (in vitro [2]): 94% | AC50 [3]: 5.41 µM | Max Resp (signal direction of the dose response) ([5]; Method 2, Decrease = decreasing P. berghei viability with dose, Increase = increasing signal, Inactive = no dose response): Decrease | AC50 ([5]; Hill fit, 50% of maximum activity response, read-out: AC50): 0.282 µM | AC50 ([5]; log10 of molar AC50 from Hill fit, read-out: Log AC50 (converted)): 0.282 µM

Cc1cc(N2CCN(C)CC2)nc2ccc(NC(=O)Nc3ccccc3Br)cc12 [NCGC00126483-01]
AC50 [3]: 17.1 µM | CC50 at 48 h (in vitro [6]): 43.2 µM | Log AC50 (M) (HepG2): -4.3643 M

CN1C(c2ccccc2)=NS(=O)(=O)c2cc(NC(=O)c3ccc(F)s3)ccc21 [NCGC00651712]
AC50 [7]: > 29 µM | AC50 [8]: > 29 µM | AC50 [9]: > 29 µM | half-life [10]: > 30 min | solubility (Aqueous solubility): < 1 µg/mL | AC50 [11]: > 29 µM | AC50 [12]: > 29 µM

Cc1ccc2[nH]c(-c3sc4nc(C)ccc4c3N)nc2c1 [MLS000547128-01]
AC50 [3]: 12.1 µM

Cc1cc(C(N)=NOC(=O)c2ccccc2Cl)no1 [MLS000833967-01]
AC50 [3]: 13.6 µM

O=C(NCCC1=CCCCC1)C1CCN(C(=O)c2ncn3c2COC(c2ccccc2)C3)CC1 (stereo not drawn) [NCGC00449771-01]
AC50 [3]: 21.5 µM

Cc1ccoc1C(=O)Nc1ccc(CC(=O)O)cc1 [MLS000122814-01]
AC50 [3]: 12.1 µM

Nc1nc(Nc2ccccc2)nc2ccccc12 [MLS000026767-01]
AC50 [3]: 13.6 µM

Cc1ccc(C(=O)NCCn2c(C)cc3ccccc32)cc1C [NCGC00107199-01]
AC50 [3]: 4.3 µM

NC(=NOC(=O)c1cccc(F)c1)c1ccccn1 [MLS001075504-01]
AC50 [3]: 10.8 µM | CC50 at 48 h (in vitro [6]): 15.3 µM | Log AC50 (M) (HepG2): -4.8143 M

COc1cc(SC)ccc1C(=O)Nc1nc2ccccc2[nH]1 [MLS001172173-01]
AC50 [3]: 0.0171 µM | CC50 at 48 h (in vitro [4]): 19.3 µM

Cc1ccc2nc(N3C(=O)CNC3=S)sc2c1 [MLS000768544-01]
AC50 [3]: 10.8 µM

O=C(NC1CCCCC1)c1[nH]nc2c1CCCCC2 [MLS002178094-01]
AC50 [3]: 4.82 µM

O=C1c2cnc(-c3cc4ccccc4o3)nc2OCCN1c1ccccc1 [NCGC00413607-01]
AC50 [3]: 0.622 µM | CC50 at 48 h (in vitro [4]): 8.86 µM

Cc1cccnc1Nc1nc(-c2ccccn2)cs1 [MLS000528306-01]
AC50 [1]: 0.473 µM | viability at 48 h, 1 µM (in vitro [2]): 57% | viability at 48 h, 3 µM (in vitro [2]): 30% | AC50 [3]: 19.2 µM | CC50 at 48 h (in vitro [6]): 1.09 µM | Log AC50 (M) (HepG2): -5.9643 M

N=c1n(N)c2ccccc2n1CC(=O)c1ccc(Br)cc1 [MLS001183984-01]
viability at 66 h (in vitro [2]): 103% | AC50 [3]: 12.1 µM

Cc1ccc(-c2cc(O)c3cc(C)ccc3n2)cc1 [MLS000517822-01]
AC50 [1]: 10.6 µM | AC50 [3]: 12.1 µM

Cc1ccc(-c2nc(C)c(C(=O)O)s2)cc1 [MLS000735996-01]
AC50 [3]: 13.6 µM

Cc1ccc(C)c(/N=N/c2nc3ccccc3n2C)c1 [MLS000577452-01]
AC50 [1]: 0.299 µM | viability at 48 h, 1 µM (in vitro [2]): 95% | viability at 48 h, 3 µM (in vitro [2]): 88% | AC50 [3]: 12.1 µM

Nc1ncnc2c1ncn2[C@@H]1O[C@H](CN[S+](=O)([O-])NC(=O)c2cccc(-c3noc(-c4ccccc4F)n3)c2)[C@@H](O)[C@H]1O [NCGC00183809-01]
AC50 [3]: 0.0136 µM | CC50 at 48 h (in vitro [4]): 1.72 µM

NC(=NOC(=O)/C=C/c1ccc(Br)cc1)c1ccccn1 [MLS000680558-01]
AC50 [3]: 9.62 µM

CCOC(=O)Cc1csc(NC(=S)NC(=O)c2ccc(C)cc2)n1 [MLS000574610-01]
AC50 [3]: 9.62 µM

CCc1ccc2oc(-c3cccc(NC(=O)c4ccc(-c5cccc([N+](=O)[O-])c5)o4)c3)nc2c1 [NCGC00102150-01]
AC50 [3]: 15.2 µM

Cc1nn(-c2ccccc2)c(C)c1/C=N/Nc1nc2ccccc2[nH]1 [MLS000332160-01]
AC50 [1]: 1.5 µM | AC50 [3]: 12.1 µM | activity at 1 µM ([13]; replicate 1, normalized, read-out: PbLuc 1uM growth rep1): 86% | activity at 1 µM ([13]; replicate 2, normalized, read-out: PbLuc 1uM growth rep2): 81% | activity at 3 µM ([13]; replicate 1, normalized, read-out: PbLuc 3uM growth rep1): 33% | activity at 3 µM ([13]; replicate 2, normalized, read-out: PbLuc 3uM growth rep2): 53% | HepG2 1uM growth rep1 (HepG2-A16-CD81EGFP cells; HepG2, 1 µM compound treatment (10 mM stocks), replicate 1, normalized): 93% | HepG2 1uM growth rep2 (HepG2-A16-CD81EGFP cells; HepG2, 1 µM compound treatment (10 mM stocks), replicate 2, normalized): 90% | HepG2 3uM growth rep1 (HepG2-A16-CD81EGFP cells; HepG2, 3 µM compound treatment (10 mM stocks), replicate 1, normalized): 89% | HepG2 3uM growth rep2 (HepG2-A16-CD81EGFP cells; HepG2, 3 µM compound treatment (10 mM stocks), replicate 2, normalized): 86%

N#CC(=C1CCCC1)c1nc(-c2ccccc2O)cs1 [MLS000034824-01]
AC50 [1]: 9.44 µM | AC50 [3]: 19.2 µM

CCOc1ccc(NC(=O)c2ccc3c(c2)N(C)C2CCCN2C3=O)cc1 (stereo not drawn) [NCGC00452128-01]
AC50 [3]: 21.5 µM

CCc1ccc(C2=CC(c3cccc(C)c3)n3c(nc4ccccc43)N2)cc1 (stereo not drawn) [NCGC00140745-01]
AC50 [1]: 15 µM | AC50 [3]: 4.82 µM

COc1ccc(C(=O)C=CNc2cc(C)ccn2)cc1 [MLS001043227-01]
AC50 [3]: 8.57 µM

COc1ccc(NC(=O)c2cccc3c2CCN3C(=O)Nc2ccc(F)cc2)c(C)c1 [NCGC00430188-01]
AC50 [3]: 7.64 µM

C/C(=N\OCc1cccc(C(=O)O)c1)c1ccc(Cl)cc1 [MLS000850591-01]
AC50 [3]: 0.0136 µM

c1ccc2sc(Sc3ncnc4sccc34)nc2c1 [MLS000334432-01]
AC50 [1]: 0.944 µM | AC50 [3]: 8.57 µM

O=C(O)COc1ccc(-c2nccc(-c3cccs3)n2)cc1 [MLS000331320-01]
AC50 [3]: 6.81 µM

CCN(CC)CCN1C(=O)c2ccccc2NC1c1ccc(N(C)C)cc1 (stereo not drawn) [MLS000554078-01]
AC50 [1]: 4.22 µM | AC50 [3]: 1.92 µM

CC1(C)Cc2nc3sc4c(SCC(=O)O)ncnc4c3cc2CO1 [MLS000778156-01]
AC50 [3]: 10.8 µM
